Assays:
[1] = test system: B6Bcl2 mice; test: Spleen shrinkage / in vivo efficacy in B6Bcl2 transgenic mice; design: species or system mouse; settings: for order of potency in terms of in vivo efficacy / in vivo activity: B6BCL-2 transgenic mouse
From the text: In the same model, another known compound apogossypolone was not effective. Gossypol is described, e.g., in U.S. Pat. No. 7,186,708. Apogossypol is described, e.g., in Meyers A. I.; Willemsen J. J., Tetrahedron Letters, vol. 37, No. 6, February, […], pp. 791-792.
(§1) Compound A was given to B6Bcl2 mice at a daily dose of […] for 3 days through oral gavage. […] Both compound A and the negative control were preliminarily dissolved in PBS. After 3 days, the spleens of the animals were removed and weighed.
(§2) In parallel experiments, compound A was also administered intraperitoneally at […], as were some related compounds, such as compounds 1 and 2 shown in Table 1, above. In these experiments, after 24 hours, the spleens of the animals were removed and weighed.
(§3) The results of efficacy of compound A administered intraperitoneally were also compared with the results obtained when compound A was administered orally. […] Accordingly, compound A can be administered in both ways, orally or intraperitoneally. […] It was also shown that compound A can be administered safely.

[2] = test system: PC3ML; test: Cell viability, PC3ML; assay type: cell-based; settings: for IC50: PC3-ML, cell viability, mean ± standard deviation of three independent experiments
Experimental: (§4) The inhibition information for cells H460 and PC3ML is also shown by FIG. 2. […] The structures of compounds 1-3 are shown in Table 1, above, and the structure of compound 4 is as follows:
(§5) The effectiveness of compound A was also evaluated, in comparison with compound 1 shown in Table 1, by determining mean IC50 values, which were measured for three independent experiments (each in triplicate) for compounds 1 and A. All points were normalized to control as a percentage of cell viability and statistics were completed with Graphpad Prism software.

[3] = test system: A549L; test: Cell viability IC50, A549L; assay type: cell-based; settings: mean ± standard deviation of three independent experiments
Experimental: as §5

[4] = Microsomal stability; assay type: in vitro ADME
[5] = target: T1, BCL-xL (Homo sapiens, UniProt Q07817); test: Dissociation constant (Kd) / binding to BCL-xL
T1 construct: Recombinant full length BCL-XL was produced from a pET-19b (Novagen) plasmid construct; poly-His (N); made in house; host or cells: E. coli BL21
Experimental: The inhibition was also evaluated by measuring dissociation constant (Kd) values for compound A in comparison with some related compounds 1, 2, and 3.
For all NMR experiments, BCL-xL was exchanged into 50 mM phosphate buffer at pH 7.5 and measurements were performed at 30° C. 2D [^15N,^1H]-HSQC spectra for BCL-xL were measured with 0.5 mM samples of ^15N-labeled protein. All experiments were performed with a 600 MHz Bruker Avance spectrometer, both equipped with either a TXI probe or a TCI cryoprobe. In all experiments, dephasing of residual water signals was obtained with a WATERGATE sequence. In order to test the ability of test compounds to bind to Bcl-xL, a 25 μM sample of the protein was prepared and 1D ^1H NMR spectra were collected in absence and presence of test compounds. By observing the aliphatic region of the spectra, binding can be readily detected in these simple experiments due to chemical shift changes in active site methyl groups of Ile, Leu, Thr, Val or Ala (region between 0.8 and 0.3 ppm).

[6] = Plasma stability; assay type: in vitro ADME
[7] = test system: H460; test: Cell viability, H460; assay type: cell-based; settings: for IC50: Homo sapiens, NCI-H460, cell viability, mean ± standard deviation of three independent experiments
Experimental: as §4, §5

[8] = test system: RS11846S; test: Cell viability IC50, RS11846S; assay type: cell-based; settings: mean ± standard deviation of three independent experiments
Experimental: as §5

[9] = test system: B6Bcl2 mice; test: Safety in B6Bcl2 mice (weight loss, physical exam); assay type: in vivo, mouse; settings: regardless of route of administration (oral or intraperitoneal)
Experimental: as §1, §2, §3

[10] = FIG. 2, in comparison with compounds 1-4

T1 sequence (Q07817 whole entry, species assumed): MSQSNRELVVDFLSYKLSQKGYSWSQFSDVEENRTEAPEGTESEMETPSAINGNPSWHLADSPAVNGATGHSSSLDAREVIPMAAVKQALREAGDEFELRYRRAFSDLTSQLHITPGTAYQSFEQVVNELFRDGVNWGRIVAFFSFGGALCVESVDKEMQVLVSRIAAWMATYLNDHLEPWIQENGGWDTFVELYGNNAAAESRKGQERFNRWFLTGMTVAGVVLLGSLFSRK

Cc1cc2c(C(C)C)c(O)c(O)cc2c(O)c1-c1c(C)cc2c(C(C)C)c(O)c(O)cc2c1O [apogossypol]
order of potency in terms of in vivo efficacy [1]: compound A>apogossypol=gossypol

CC(C)C(C(=O)O)N1C(=O)/C(=C\c2ccc(Br)cc2)SC1=S (stereo not drawn) [Compound 1]
IC50 [2]: 60900 ± 1600 nM
IC50 [3]: 12200 ± 5900 nM
Microsomal Stability, % (45 minutes) [4]: 54%
Kd [5]: 1100 nM
Plasma Stability, % (45 minutes) [6]: 56%
IC50 [7]: 3000 ± 2400 nM
IC50 [8]: 6500 ± 10000 nM

O=C(O)CN1C(=O)S/C(=C\c2ccc(-c3ccccc3)cc2)C1=O [Compound A, (Z)-2-(5-(biphenyl-4-ylmethylene)-2,4-dioxothiazolidin-3-yl)acetic acid]
influence on the cell viability [2, 10]: largest influence on the cell viability
IC50 [2]: 700 ± 600 nM
IC50 [3]: 800 ± 300 nM
Microsomal Stability, % (45 minutes) [4]: 72%
Kd [5]: 14000 nM
weight loss or signs of toxicity via physical exam [9]: no weight loss or signs of toxicity
Plasma Stability, % (45 minutes) [6]: 58%
influence on the cell viability [7, 10]: largest influence on the cell viability
IC50 [7]: 500 ± 300 nM
in vivo activity [1]: equal to, or better than, known compounds gossypol and apogossypol
order of potency in terms of in vivo efficacy [1]: compound A>apogossypol=gossypol
shrinkage of spleen ([1]; either route, orally or intraperitoneally): induced shrinkage of spleen
degree of shrinkage of spleen, intraperitoneal injection higher than oral dosing ([1]; intraperitoneal vs oral, FIG. 4): about 100%
degree of shrinkage of spleen higher than that induced by compounds 1 or 2 ([1]; intraperitoneally at 60 mmol/kg, spleens weighed after 24 hours, FIG. 3): about 40%
IC50 [8]: 400 nM

CC(=C\c1ccccc1)/C=C1/SC(=S)N(C(C(=O)O)C(C)C)C1=O (stereo not drawn) [Compound 3]
Microsomal Stability, % (45 minutes) [4]: 75%
Kd [5]: 11800 nM
Plasma Stability, % (45 minutes) [6]: 51%

apogossypolone
in vivo activity [1]: not effective

CC(C)C(C(=O)O)N1C(=O)/C(=C\c2ccc(-c3ccccc3)cc2)SC1=S (stereo not drawn) [Compound 2]
Microsomal Stability, % (45 minutes) [4]: 22%
Kd [5]: 160 nM
Plasma Stability, % (45 minutes) [6]: 59%

Source: patent publication US20090258914A1, “Inhibitor of Anti-Apoptotic Proteins” (Burnham Institute for Medical Research, priority 2008, published 2009)
